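Values below derive from 48-hour exposures of cells grown in 96-well plates, with endpoints linearly interpolated between the two concentrations bracketing the appropriate inhibition level. The concentration for 50% growth inhibition is given as GI50.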 Activity calls are given as the source filed them. No stated cut-off is given here; in the data, active = GI50 up to about 1.1 µM and inactive = higher.
Columns and labels:
Experiment in all cases: NCI tumour cell line growth inhibition, 48 h
[1] = tested on: RXF 393
[2] = tested on: K562
[3] = tested on: U-251
[4] = tested on: HCT-15
[5] = tested on: PC-3
[6] = tested on: A549
[7] = tested on: CCRF-CEM
[8] = tested on: NCI/ADR-RES
[9] = tested on: TK-10
[10] = tested on: Hs-578T
[11] = tested on: 786-0
[12] = tested on: CAKI-1
[13] = tested on: HCT-116
[14] = tested on: IGROV-1
[15] = tested on: UO-31
[16] = tested on: M14
[17] = tested on: MDA-MB-435
[18] = tested on: SK-OV-3
[19] = tested on: NCI-H226
[20] = tested on: COLO 205
[21] = tested on: HT-29
[22] = tested on: OVCAR-8
[23] = tested on: HOP-62
[24] = tested on: SK-MEL-5
[25] = tested on: UACC-257
[26] = tested on: SNB-75
[27] = tested on: NCI-H23
[28] = tested on: MOLT-4
[29] = tested on: SK-MEL-2
[30] = tested on: MDA-N
[31] = tested on: SK-MEL-28
[32] = tested on: T47D
[33] = tested on: BT-549
[34] = tested on: UACC-62
[35] = tested on: SW-620
[36] = tested on: SNB-19
[37] = tested on: NCI-H460
[38] = tested on: OVCAR-4
[39] = tested on: KM12
[40] = tested on: OVCAR-5
[41] = tested on: Malme-3M
[42] = tested on: SF-268
[43] = tested on: NCI-H522
[44] = tested on: HCC 2998
[45] = tested on: OVCAR-3
[46] = tested on: A498
[47] = tested on: SF-295
[48] = tested on: MDA-MB-231
[49] = tested on: HL-60
[50] = tested on: MCF7
[51] = tested on: DU-145
[52] = tested on: EKVX
[53] = tested on: SR
[54] = tested on: RPMI-8226
[55] = tested on: SF-539
[56] = tested on: LOX IMVI
[57] = tested on: ACHN
[58] = tested on: HOP-92
[59] = tested on: SN12C

COc1cc([C@@H]2c3cc4c(cc3[C@@H](NCCNCCO)[C@H]3COC(=O)[C@H]23)OCO4)cc(OC)c1O
GI50 [1]: 1.53 µM (inactive) | GI50 [2]: 1.71 µM (inactive) | GI50 [3]: 0.501 µM (active) | GI50 [4]: 29.5 µM | GI50 [5]: 2.67 µM (inactive) | GI50 [6]: 0.785 µM (active) | GI50 [7]: 0.0432 µM (active) | GI50 [8]: > 100 µM (inactive) | GI50 [9]: 6.59 µM (inactive) | GI50 [10]: 1.89 µM (inactive) | GI50 [11]: 1.09 µM (active) | GI50 [12]: 3.78 µM (inactive) | GI50 [13]: 2.4 µM (inactive) | GI50 [14]: 1.05 µM (active) | GI50 [15]: 11.6 µM (inactive) | GI50 [16]: 3.79 µM (inactive) | GI50 [17]: 6.22 µM (inactive) | GI50 [18]: 1.78 µM (inactive) | GI50 [19]: 1.12 µM (inactive) | GI50 [20]: 2.38 µM (inactive) | GI50 [21]: 2.86 µM (inactive) | GI50 [22]: 2.09 µM (inactive) | GI50 [23]: 1.5 µM (inactive) | GI50 [24]: 1.15 µM (inactive) | GI50 [25]: 7.85 µM (inactive) | GI50 [26]: 1.1 µM (active) | GI50 [27]: 1.24 µM (inactive) | GI50 [28]: 0.016 µM (active) | GI50 [29]: 2.15 µM (inactive) | GI50 [30]: 4.35 µM (inactive) | GI50 [31]: 2.14 µM (inactive) | GI50 [32]: 0.442 µM (active) | GI50 [33]: 1.92 µM (inactive) | GI50 [34]: 0.644 µM (active) | GI50 [35]: 2.44 µM (inactive) | GI50 [36]: 0.857 µM (active) | GI50 [37]: 0.0525 µM (active) | GI50 [38]: 18.7 µM (inactive) | GI50 [39]: 2.55 µM (inactive)

CCCC(=O)N(C)/N=N/c1ccc(C(=O)OCC)cc1
GI50 [1]: > 100 µM (inactive) | GI50 [2]: > 100 µM (inactive) | GI50 [40]: > 100 µM (inactive) | GI50 [41]: > 100 µM (inactive) | GI50 [42]: > 100 µM (inactive) | GI50 [43]: 52 µM (inactive) | GI50 [44]: > 100 µM (inactive) | GI50 [3]: > 100 µM (inactive) | GI50 [4]: > 100 µM | GI50 [5]: > 100 µM (inactive) | GI50 [45]: > 100 µM (inactive) | GI50 [6]: > 100 µM (inactive) | GI50 [7]: > 100 µM (inactive) | GI50 [46]: 81.7 µM (inactive) | GI50 [47]: > 100 µM (inactive) | GI50 [9]: > 100 µM (inactive) | GI50 [10]: > 100 µM (inactive) | GI50 [11]: > 100 µM (inactive) | GI50 [12]: > 100 µM (inactive) | GI50 [13]: > 100 µM (inactive) | GI50 [48]: > 100 µM (inactive) | GI50 [14]: > 100 µM (inactive) | GI50 [15]: 42.6 µM (inactive) | GI50 [16]: > 100 µM (inactive) | GI50 [49]: > 100 µM (inactive) | GI50 [50]: > 100 µM (inactive) | GI50 [19]: > 100 µM (inactive) | GI50 [21]: > 100 µM (inactive) | GI50 [51]: > 100 µM (inactive) | GI50 [22]: > 100 µM (inactive) | GI50 [23]: > 100 µM (inactive) | GI50 [24]: > 100 µM (inactive) | GI50 [52]: 15.2 µM (inactive) | GI50 [25]: > 100 µM (inactive) | GI50 [53]: > 100 µM (inactive) | GI50 [26]: 37.9 µM (inactive) | GI50 [27]: > 100 µM (inactive) | GI50 [28]: > 100 µM (inactive) | GI50 [29]: > 100 µM (inactive) | GI50 [30]: > 100 µM (inactive) | GI50 [54]: > 100 µM (inactive) | GI50 [31]: > 100 µM (inactive) | GI50 [32]: 63.4 µM (inactive) | GI50 [55]: > 100 µM (inactive) | GI50 [33]: > 100 µM (inactive) | GI50 [34]: > 100 µM (inactive) | GI50 [56]: > 100 µM (inactive) | GI50 [35]: > 100 µM (inactive) | GI50 [36]: > 100 µM (inactive) | GI50 [57]: > 100 µM (inactive) | GI50 [37]: 22.6 µM (inactive) | GI50 [58]: > 100 µM (inactive) | GI50 [59]: > 100 µM (inactive) | GI50 [38]: > 100 µM (inactive) | GI50 [39]: > 100 µM (inactive)

O=C(Cc1ccc([N+](=O)[O-])cc1)OCC#CCOC(=O)Cc1ccc([N+](=O)[O-])cc1
GI50 [1]: > 10 µM (inactive) | GI50 [2]: > 10 µM (inactive) | GI50 [40]: > 10 µM (inactive) | GI50 [41]: > 10 µM (inactive) | GI50 [42]: > 10 µM (inactive) | GI50 [43]: > 10 µM (inactive) | GI50 [3]: > 10 µM (inactive) | GI50 [4]: > 10 µM | GI50 [5]: > 10 µM (inactive) | GI50 [45]: > 10 µM (inactive) | GI50 [6]: > 10 µM (inactive) | GI50 [7]: > 10 µM (inactive) | GI50 [8]: > 10 µM (inactive) | GI50 [47]: > 10 µM (inactive) | GI50 [9]: > 10 µM (inactive) | GI50 [10]: > 10 µM (inactive) | GI50 [11]: > 10 µM (inactive) | GI50 [48]: > 10 µM (inactive) | GI50 [14]: > 10 µM (inactive) | GI50 [15]: > 10 µM (inactive) | GI50 [16]: > 10 µM (inactive) | GI50 [49]: > 10 µM (inactive) | GI50 [17]: > 10 µM (inactive) | GI50 [50]: > 10 µM (inactive) | GI50 [18]: > 10 µM (inactive) | GI50 [21]: > 10 µM (inactive) | GI50 [22]: > 10 µM (inactive) | GI50 [24]: > 10 µM (inactive) | GI50 [52]: > 10 µM (inactive) | GI50 [25]: > 10 µM (inactive) | GI50 [53]: > 10 µM (inactive) | GI50 [26]: > 10 µM (inactive) | GI50 [27]: > 10 µM (inactive) | GI50 [28]: > 10 µM (inactive) | GI50 [29]: > 10 µM (inactive) | GI50 [30]: > 10 µM (inactive) | GI50 [32]: > 10 µM (inactive) | GI50 [55]: > 10 µM (inactive) | GI50 [33]: > 10 µM (inactive) | GI50 [34]: > 10 µM (inactive) | GI50 [56]: > 10 µM (inactive) | GI50 [35]: > 10 µM (inactive) | GI50 [36]: > 10 µM (inactive) | GI50 [57]: > 10 µM (inactive) | GI50 [37]: > 10 µM (inactive) | GI50 [58]: > 10 µM (inactive) | GI50 [59]: > 10 µM (inactive) | GI50 [38]: > 10 µM (inactive) | GI50 [39]: > 10 µM (inactive)
